In test [1] the test system is asynchronous 3D7 chloroquine-sensitive P. falciparum infected red blood cells. The experiment in a line: Labeled hypoxanthine incorporation assay (in vitro anti-malarial activity). The test is classed as cell-based. The conditions noted are these: 3D7 chloroquine-sensitive strain, infected RBC, 48 h contact, [3H]-hypoxanthine incorporation, two independent experiments in duplicates, read-out: IC50 assessed on Plasmodium Falciparum.

The test system of test [2] is Toxoplasma gondii RH-β1 strain. The experiment in a line: microbe, parasite or virus in culture. The test is classed as cell-based. The conditions noted are these: read-out: IC50 assessed on Toxoplama Gondii.
[3] abbreviates: Plasmodium falciparum, 3D7, Erythrocyte.

Structures can show the parent of a compound that is named as a salt. Where two headings read alike, the source gives them in different places.

In general, IC50 refers to the concentration that inhibits the measured activity by half.

Regarding `C[C@@H](COC(=O)NCCCn1c(=O)[nH]c2ccccc21)N(Cc1ccccc1)Cc1ccccc1` [Compound 6, (S)-2-(dibenzylamino)propyl 3-(1,2-dihydro-2-oxobenzo[d]imidazol-3-yl)propylcarbamate], the IC50 amounted to 16.6 µM in test [1] (setting [3]) and 0.381 µM in test [2] (Toxoplasma gondii).

As to `C[C@@H](COC(=O)N1CCC(N2CCCc3ccccc32)CC1)N(Cc1ccccc1)Cc1ccccc1` [Compound 8, (S)-2-(dibenzylamino)propyl 4-(3,4-dihydroquinolin-1(2H)-yl)piperidine-1-carboxylate], the IC50 was determined as 2.81 µM in test [1] (setting [3]) and 25 µM in test [2] (Toxoplasma gondii).

For `O=c1[nH]c2ccccc2n1C1CCN(CCCCN(Cc2ccccc2)Cc2ccccc2)CC1` [Compound 9, 1-(1-(4-(dibenzylamino)butyl)piperidin-4-yl)-1H-benzo[d]imidazol-2(3H)-one], the IC50 in test [1] (setting [3]) worked out at 2.95 µM; in test [2] (Toxoplasma gondii), 1.5 µM.

As to `C[C@@H](COC(=O)N1CCC(n2c(=O)[nH]c3ncccc32)CC1)N(Cc1ccccc1)Cc1ccccc1` [Compound 11, (S)-2-(dibenzylamino)propyl 4-(2,3-dihydro-2-oxoimidazo[4,5-b]pyridin-1-yl)piperidine-1-carboxylate], the IC50 in test [1] (setting [3]) was 3.84 µM; in test [2] (Toxoplasma gondii), 2.5 µM.

Turning to `C[C@@H](COC(=O)N1CCC(n2c(=O)[nH]c3cc4ccccc4cc32)CC1)N(Cc1ccccc1)Cc1ccccc1` [Compound 12, (S)-2-(dibenzylamino)propyl 4-(1,2-dihydro-2-oxonaphtho[2,3-d]imidazol-3-yl)piperidine-1-carboxylate], the IC50 in test [1] (setting [3]) is 7.2 µM; in test [2] (Toxoplasma gondii) it was 0.75 µM.

On to `C[C@@H](COC(=O)N1CCCC(n2c(=O)[nH]c3ccccc32)CC1)N(Cc1ccccc1)Cc1ccccc1` (stereo partly drawn) [Compound 13, (S)-2-(dibenzylamino)propyl 4-(1,2-dihydro-2-oxobenzo[d]imidazol-3-yl)azepane-1-carboxylate], for which the IC50 in test [1] (setting [3]) came to 10.7 µM; in test [2] (Toxoplasma gondii) it was 5 µM.

As for `Cc1nc2ccccc2n1C1CCN(C(=O)OC[C@H](C)N(Cc2ccccc2)Cc2ccccc2)CC1` [Compound 15, (S)-2-(dibenzylamino)propyl 4-(2-methyl-1H-benzo[d]imidazol-1-yl)piperidine-1-carboxylate], the IC50 in test [1] (setting [3]) turned out to be 2.42 µM; in test [2] (Toxoplasma gondii), 3.41 µM.

Consider `C[C@@H](COC(=O)N1CCCC(n2c(=O)[nH]c3ccccc32)C1)N(Cc1ccccc1)Cc1ccccc1` (stereo partly drawn) [Compound 16, (S)-2-(dibenzylamino)propyl 3-(1,2-dihydro-2-oxobenzo[d]imidazol-3-yl)piperidine-1-carboxylate], for which the IC50 in test [1] (setting [3]) is 2.81 µM; in test [2] (Toxoplasma gondii) it was 2.35 µM.

As for `C[C@@H](COC(=O)N1CCC(n2c(=O)[nH]c3ccccc32)C1)N(Cc1ccccc1)Cc1ccccc1` (stereo partly drawn) [Compound 17, (S)-2-(dibenzylamino)propyl 3-(1,2-dihydro-2-oxobenzo[d]imidazol-3-yl)pyrrolidine-1-carboxylate], the IC50 came out at 7.18 µM in test [1] (setting [3]) and 3.3 µM in test [2] (Toxoplasma gondii).

For `CCOC(=O)C1CN(C(=O)OC[C@H](C)N(Cc2ccccc2)Cc2ccccc2)CCC1n1c(=O)[nH]c2ccccc21` (stereo partly drawn) [Compound 18, 1-(S)-2-(dibenzylamino)propyl 3-ethyl 4-(1,2-dihydro-2-oxobenzo[d]imidazol-3-yl)piperidine-1,3-dicarboxylate], the IC50 in test [1] (setting [3]) was 1.52 µM; in test [2] (Toxoplasma gondii), 2.81 µM.

With `C[C@@H](COC(=O)N1CCC(Cn2c(=O)[nH]c3ccccc32)CC1)N(Cc1ccccc1)Cc1ccccc1` [Compound 19, (S)-2-(dibenzylamino)propyl 4-((1,2-dihydro-2-oxobenzo[d]imidazol-3-yl)methyl)piperidine-1-carboxylate], the IC50 in test [1] (setting [3]) was found to be 5.79 µM; in test [2] (Toxoplasma gondii), 3.41 µM.

On to `C[C@@H](COC(=O)N1CCC(CCn2c(=O)[nH]c3ccccc32)CC1)N(Cc1ccccc1)Cc1ccccc1` [Compound 20, (S)-2-(dibenzylamino)propyl 4-(2-(1,2-dihydro-2-oxobenzo[d]imidazol-3-yl)ethyl)piperidine-1-carboxylate], for which the IC50 in test [1] (setting [3]) stood at 6.84 µM; in test [2] (Toxoplasma gondii) it was 4.2 µM.

For the compound `C[C@@H](COC(=O)N1CCCC1Cn1c(=O)[nH]c2ccccc21)N(Cc1ccccc1)Cc1ccccc1` (stereo partly drawn) [Compound 23, (S)-2-(dibenzylamino)propyl 2-((1,2-dihydro-2-oxobenzo[d]imidazol-3-yl)methyl)pyrrolidine-1-carboxylate], the IC50 was found to be 7.27 µM in test [1] (setting [3]) and 3.1 µM in test [2] (Toxoplasma gondii).

With `C[C@@H](COC(=O)N1CCC(n2c(=O)[nH]c3ccccc32)CC1)N(Cc1ccccc1)Cc1ccccc1` [Compound 25, (S)-2-(dibenzylamino)propyl 4-(1,2-dihydro-2-oxobenzo[d]imidazol-3-yl)piperidine-1-carboxylate], the figures for the IC50 in test [1] (setting [3]) and in test [2] (Toxoplasma gondii) were 4.9 µM and 14 µM, respectively.

For `O=C(OC[C@H](Cc1ccccc1)N(Cc1ccccc1)Cc1ccccc1)N1CCC(n2c(=O)[nH]c3ccccc32)CC1` [Compound 26, (S)-2-(dibenzylamino)-3-phenylpropyl 4-(1,2-dihydro-2-oxobenzo[d]imidazol-3-yl)piperidine-1-carboxylate], the IC50 turned out to be 1.4 µM in test [1] (setting [3]) and 4.8 µM in test [2] (Toxoplasma gondii).

`C[C@@H](COC(=O)N1CC=C(n2c(=O)[nH]c3ccccc32)CC1)N(Cc1ccccc1)Cc1ccccc1` [Compound 28, (S)-2-(dibenzylamino)propyl 5,6-dihydro-4-(1,2-dihydro-2-oxobenzo[d]imidazol-3-yl)pyridine-1(2H)-carboxylate]: the IC50 in test [1] (setting [3]) stood at 4.1 µM; in test [2] (Toxoplasma gondii), 3.5 µM.

With `O=C(OCCCN(Cc1ccccc1)Cc1ccccc1)N1CCC(n2c(=O)[nH]c3ccccc32)CC1` [Compound 29, 3-(dibenzylamino)propyl 4-(1,2-dihydro-2-oxobenzo[d]imidazol-3-yl)piperidine-1-carboxylate], the IC50 was determined as 3.6 µM in test [1] (setting [3]) and 2.5 µM in test [2] (Toxoplasma gondii).

On to `O=C(OCCN(Cc1ccccc1)Cc1ccccc1)N1CCC(n2c(=O)[nH]c3ccccc32)CC1` [Compound 30, 2-(dibenzylamino)ethyl 4-(1,2-dihydro-2-oxobenzo[d]imidazol-3-yl)piperidine-1-carboxylate], for which the IC50 in test [1] (setting [3]) came out at 6.9 µM; in test [2] (Toxoplasma gondii), 7.5 µM.

Consider `O=C(OCCC(c1ccccc1)c1ccccc1)N1CCC(n2c(=O)[nH]c3ccccc32)CC1` [Compound 36, 3,3-diphenylpropyl 4-(1,2-dihydro-2-oxobenzo[d]imidazol-3-yl)piperidine-1-carboxylate], for which the IC50 in test [1] (setting [3]) came to 8.54 µM; in test [2] (Toxoplasma gondii), 1.2 µM.

Consider `O=C(OC[C@H](Cc1ccccc1)N(Cc1ccccc1)Cc1ccccc1)N1CCC(n2c(=O)n(Cc3ccccc3)c3ccccc32)CC1` [Compound 37, (S)-2-(dibenzylamino)-3-phenylpropyl 4-(1-benzyl-1,2-dihydro-2-oxobenzo[d]imidazol-3-yl)piperidine-1-carboxylate, hydrochloride salt], for which the figures for the IC50 in test [1] (hydrochloride salt) and in test [2] (hydrochloride salt) were 0.873 µM and 1.8 µM, respectively.

For the compound `C[C@@H](COC(=O)N1CCC(n2c(=O)[nH]c3cc(Cl)ccc32)CC1)N(Cc1ccccc1)Cc1ccccc1` [Compound 38, (S)-2-(dibenzylamino)propyl 4-(6-chloro-1,2-dihydro-2-oxobenzo[d]imidazol-3-yl)piperidine-1-carboxylate], the IC50 is 4.68 µM in test [1] (setting [3]) and 1 µM in test [2] (Toxoplasma gondii).

As for `O=C(OCCC1CCN(Cc2ccccc2)CC1)N1CCC(n2c(=O)[nH]c3ccccc32)CC1` [Compound 40, 2-(1-benzylpiperidin-4-yl)ethyl 4-(1,2-dihydro-2-oxobenzo[d]imidazol-3-yl)piperidine-1-carboxylate], the values for the IC50 in test [1] (setting [3]) and in test [2] (Toxoplasma gondii) were 8.16 µM and 0.98 µM, respectively.

In the case of `CCN(CCOC(=O)N1CCC(n2c(=O)[nH]c3ccccc32)CC1)c1ccccc1` [Compound 41, 2-(ethyl(phenyl)amino)ethyl 4-(2-oxo-2,3-dihydro-1H-benzo[d]imidazol-1-yl)piperidine-1-carboxylate], the IC50 in test [1] (setting [3]) amounted to 24.4 µM; in test [2] (Toxoplasma gondii), 1.8 µM.

`O=C(OC[C@@H]1CCCN1Cc1ccccc1)N1CCC(n2c(=O)[nH]c3ccccc32)CC1` [Compound 42, ((S)-1-benzylpyrrolidin-2-yl)methyl 4-(1,2-dihydro-2-oxobenzo[d]imidazol-3-yl)piperidine-1-carboxylate]: the IC50 in test [1] (setting [3]) is 18.8 µM; in test [2] (Toxoplasma gondii) it was 5 µM.

As to `O=C(OCC(c1ccccc1)c1ccccc1)N1CCC(n2c(=O)[nH]c3ccccc32)CC1` [Compound 43, 2,2-diphenylethyl 4-(1,2-dihydro-2-oxobenzo[d]imidazol-3-yl)piperidine-1-carboxylate], the half-inhibitory concentration (IC50) came out at 8.33 µM in test [1] (setting [3]) and 12 µM in test [2] (Toxoplasma gondii).

For the compound `C[C@@H](COC(=O)N1CCC(c2c[nH]c3ccccc23)CC1)N(Cc1ccccc1)Cc1ccccc1` [Compound 44, (S)-2-(dibenzylamino)propyl 4-(1H-indol-3-yl)piperidine-1-carboxylate], the IC50 turned out to be 5.21 µM in test [1] (setting [3]) and 1.85 µM in test [2] (Toxoplasma gondii).

As for `O=c1[nH]c2ccccc2n1C1CCN(C(=S)OCCN(Cc2ccccc2)Cc2ccccc2)CC1` [Compound 46, O-2-(dibenzylamino)ethyl 4-(1,2-dihydro-2-oxobenzo[d]imidazol-3-yl)piperidine-1-carbothioate], the results for the IC50 in test [1] (setting [3]) and in test [2] (Toxoplasma gondii) were 2.84 µM and 0.181 µM, respectively.

For the compound `O=c1[nH]c2ccccc2n1C1CCN(C(=S)OCCOCc2ccccc2)CC1` [Compound 47, O-2-(benzyloxy)ethyl 4-(1,2-dihydro-2-oxobenzo[d]imidazol-3-yl)piperidine-1-carbothioate], the IC50 in test [1] (setting [3]) came out at 23.2 µM; in test [2] (Toxoplasma gondii), 1.13 µM.

Turning to `C[C@@H](COC(=S)N1CCC(n2c(=O)[nH]c3ccccc32)CC1)N(Cc1ccccc1)Cc1ccccc1` [Compound 48, O—(S)-2-(dibenzylamino)propyl 4-(1,2-dihydro-2-oxobenzo[d]imidazol-3-yl)piperidine-1-carbothioate], the results for the IC50 in test [1] (setting [3]) and in test [2] (Toxoplasma gondii) were 2.95 µM and 1.18 µM, respectively.

These data come from US20100292214A1, “Compounds with Antiparasitic Activity, Applications thereof to the Treatment of Infectious Diseases Caused by Apicomplexans” (commissariat a l'Energie Atomique, priority 2007, published 2010).
